Data published in PubChem BioAssay AID2305 (GlaxoSmithKline (GSK), 2010).

System: P. falciparum 3D7 growth, pLDH absorbance
Assay: P. falciparum 3D7 growth inhibition, dose response, strain 3D7 (AID 2305)

| SMILES | IC50 |
| --- | --- |
| O=S(=O)(NCCN1CCCC1)c1ccc(-c2ccc(CNCc3ccsc3)cc2)s1 | 830 nM |
| O=C(Nc1ccc(-c2cccc(-c3nc4ccccc4[nH]3)c2)cc1)N[C@@H]1C[C@H]1c1ccccc1 | 630 nM |
| CC[C@@H]([C@@H](Cc1cc2ccccc2s1)C(=O)N[C@@H](CCCCNC(=O)OCc1ccccc1)C(=O)Nc1ccccn1)N(O)C=O | 230 nM |
| COc1cc(NC2CCCC(NCc3cn(S(=O)(=O)c4ccccc4)c4ccccc34)C2)nc2ccccc12 (stereo unspecified) | 250 nM |
| CCN(CC)CCc1ccc2c(=O)cc(CCc3cccc(F)c3F)n(CC(=O)N(C)Cc3ccc(-c4ccc(C(F)(F)F)cc4)cc3)c2c1 | 860 nM |
| Cc1cc(N[C@@H](CC(C)C)C(=O)NCc2cccs2)nc(Nc2ccccc2)n1 | 1130 nM |
| COc1cc(CN2CCC(C(=O)Nc3ccc(-c4cccc(C)c4)cc3)CC2)ccc1O | 1120 nM |
| CC1(C)N=C(N)N=C(N)N1OCC1COc2ccccc2O1 (stereo unspecified) | 30 nM |
| COc1ccc(Nc2nccc(N3CCC(NS(=O)(=O)c4ccc(NC(C)=O)cc4)C3)n2)cc1 (stereo unspecified) | 800 nM |
| CCCCNC(=O)c1cc(CNC2CCCCC2)ccc1-c1cccc(CNCc2ccc(-c3ccccc3)cc2)c1 | 530 nM |
| COCCN1CCN(Cc2ccc(-c3ccc(-c4nc5c(C)cccc5[nH]4)s3)cc2)CC1 | 860 nM |
| Nc1ncc(-c2ccc(F)c(Cl)c2)c(N)n1 | 1230 nM |
| CCOc1ccc2nc(C)cc(NN=Cc3ccncc3)c2c1 | 990 nM |
| Nc1ncc(Cc2cc(Cl)c(N)c3ncccc23)c(N)n1 | 1120 nM |
| Clc1ccc(CNC2CCN(CC3CCCCC3)CC2)cc1 | 1110 nM |
| O=C(NC1CCCCN(Cc2ccccc2O)C1)c1cccc(C(F)(F)F)c1 (stereo unspecified) | 790 nM |
| O=C(N[C@H]1CCN(Cc2ccc(OCCN3CCNCC3)c3ccccc23)C1)c1ccc(Cl)c(Cl)c1 | 750 nM |
| O=C1C(=Cc2cc(Cc3ccccc3)ccc2O)SC(=S)N1Cc1ccccc1 | 940 nM |
| CN1C(=O)C(=O)N(CCCCCON=C(N)N)C1=S | 200 nM |
| CCCCCN(C(=O)Nc1cc(C(F)(F)F)cc(C(F)(F)F)c1)C(C)c1nc2ccccc2c(=O)n1CC (stereo unspecified) | 790 nM |
| Cc1c(CCc2cccc(F)c2F)[nH]c2ccccc2c1=O | 820 nM |
| O=C(Nc1ccc(-c2nc3ccccc3[nH]2)cc1)c1cccc([N+](=O)[O-])c1 | 220 nM |
| CCCCNCc1ccc(-c2nc(CN(CCCN3CCN(C)CC3)C(=O)Nc3cccc(Cl)c3)cs2)cc1 | 970 nM |
| CC(C)Cc1cn(-c2nc(-c3nc4ccccc4[nH]3)cs2)c2cc(Cl)ccc12 | 480 nM |

| SMILES | IC50 |
| --- | --- |
| COc1ccc(CC2(c3ccc(F)cc3)N=C(N)N(CCCc3ccc(F)c(F)c3)C2=O)cc1 (stereo unspecified) | 780 nM |
| CCCN1CCN(Cc2ccc(C(=O)Nc3ccc(Cl)cc3)cc2)CC1 | 50 nM |
| CCCCN1CCN(c2cc(NS(=O)(=O)c3ccc(C(=O)Nc4ccc(C(F)(F)F)cc4)cc3)ccc2OC)CC1 | 660 nM |
| CN(C)Cc1ccc(-c2cc3ncnc(Nc4ccc(OCc5cccc(F)c5)c(Cl)c4)c3s2)[nH]1 | 170 nM |
| CCNc1cc(C(=O)N[C@@H](Cc2ccccc2)[C@H](O)CNCc2cc(OC)cc(OC)c2)cc(N2CCCS2(=O)=O)c1 | 40 nM |
| Cc1cc(=O)c2cc(-c3ccc(OC(F)(F)F)cc3)ccc2[nH]1 | 480 nM |
| O=C(Nc1ccc(-c2ccccc2)cc1)Nc1cccc(OCCN2CCCC2)c1 | 930 nM |
| N#Cc1ccc(N[C@@H](CC2CCCCC2)C(=O)NCc2cc(Cl)cc(Cl)c2)c2ccccc12 | 1100 nM |
| CC(=O)N1N=C(c2cccs2)Sc2c1nc(-c1ccc(Cl)cc1)n2C(C)=O | 740 nM |
| Cc1c(C)c2c(c(C)c1O)CC[C@](C)(C(=O)N1CCC(CN3CCC(c4c[nH]c5ccccc45)CC3)CC1)O2 | 720 nM |
| CCN(CC)C(=O)C1CCN(C(C(=O)N2CCN(CC(=O)N3CCCC3)CC2)c2cc3ccccc3o2)CC1 (stereo unspecified) | 710 nM |
| O=C(Nc1ccc(S(=O)(=O)N2CCOCC2)cc1)c1cc(-c2cc(Cl)ccc2O)n[nH]1 | 770 nM |
| CCN(CC)CCNc1ccnc2[nH]c3ccc(I)cc3c12 | 230 nM |
| CCCCN1C(=O)[C@H]2CC(=O)CC(C3CCCCC3)[C@H]2C1=O (stereo partly specified) | 890 nM |
| Cc1cc(N)nc2ccc(CNCCc3ccccc3Br)cc12 | 120 nM |
| COc1cc2nc(NC3CCN(Cc4ccccc4)CC3)nc(N)c2cc1OC | 170 nM |
| CC(C)(C)C(=O)Nc1ccc(N2CCN(C(c3ccccc3)c3ccccc3)CC2)c(Cl)c1 | 660 nM |
| COc1cccc(Nc2nccc(-c3c(-c4cccc(NC(=O)c5c(F)cccc5F)c4)nn4ccccc34)n2)c1 | 180 nM |
| N#Cc1ccc(N[C@@H](CC2CCCCC2)C(=O)Nc2ccc(-c3ccccc3)cc2)c2ccccc12 | 600 nM |
| NCCc1cccc(-c2cnc3[nH]cc(-c4ccc(C(=O)O)cc4)c3c2)c1 | 400 nM |
| COc1ccc(S(=O)(=O)N(CCCN2CCN(C)CC2)Cc2csc(-c3ccc(CNCc4ccccc4)cc3)n2)cc1 | 950 nM |
| O=C(NCCN1CCCC1)c1ccc(-c2cccc(-c3nc4ccc(F)cc4[nH]3)c2)cc1 | 770 nM |
| COc1ccc(NC(=O)[C@H](CC(C)C)Nc2cc(C)nc(NCCc3ccccc3OC)n2)cc1 | 990 nM |
| O=C1c2ccccc2CN1CCCN1CCC(Oc2ccc(F)cc2)CC1 | 1210 nM |

| SMILES | IC50 |
| --- | --- |
| COc1ccc(CN(C)CCOc2ccc(NC(=O)c3cccc4c(=O)cc(-c5ccccc5)[nH]c34)cc2)cc1OC | 920 nM |
| O=C(NCCCCN1CCC(O)(c2ccc3c(c2)OCO3)CC1)c1ccc(NC(=O)c2ccc(Cl)cc2)cc1 | 1180 nM |
| O=C(NC(CCCN1CCC(c2ccccc2)CC1)c1ccc(Cl)c(Cl)c1)c1cc(C(F)(F)F)cc(C(F)(F)F)c1 (stereo unspecified) | 860 nM |
| CN=C(NO)NCCN(C)C | 1180 nM |
| Fc1ccc2nc(-c3cccc(-c4cccc(CNCc5cnn(-c6ccccc6)n5)c4)c3)[nH]c2c1 | 970 nM |
| Cc1cccc2[nH]c(-c3ccc(-c4cccc(NC(=O)c5cnn6cccnc56)c4)cc3)nc12 | 870 nM |
| O=C(NC1CCC(CN2CCC(c3c[nH]c4ccccc34)CC2)CC1)c1cc(-c2ccccc2Cl)n(-c2cccc(Cl)c2)n1 (stereo unspecified) | 850 nM |
| CN(C)Cc1cccc(-c2ccc(NC(=O)c3ccc4c(=O)n(Cc5ccoc5)cnc4c3)cc2)c1 | 770 nM |
| Cc1nn(C)c(C)c1CN(Cc1nc(-c2cccc(Oc3ccccc3)c2)oc1C)C1CC1 | 390 nM |
| FC(F)(F)c1ccc(NC(=S)N2CCC(CCN3CCC(c4c[nH]c5ccccc45)CC3)CC2)cc1 | 890 nM |
| O=C(NC1CCN(CCN2CCC(c3ccccc3C(F)(F)F)CC2)CC1)c1ccc(-c2ccc(Cl)cc2)cc1 | 710 nM |
| Cc1cccc(CNc2nc(C)cc(N[C@@H](Cc3ccccc3)C(=O)NCc3cccc(F)c3)n2)c1 | 1040 nM |
| O=C(Nc1ccc(Cl)cc1)Nc1cccc(-c2cccc(-c3nc4ccccc4[nH]3)c2)c1 | 130 nM |
| O=S(=O)(Nc1cccc(CCN2CCC(N3CCCCC3)CC2)c1)c1ccc(Oc2ccccc2)nc1 | 930 nM |
| O=[N+]([O-])c1ccc(-n2nc(Cc3ccccc3)n(Cc3cccc(F)c3)c2=S)c(C(F)(F)F)c1 | 770 nM |
| CCNc1cc(C(=O)N[C@@H](Cc2ccccc2)[C@H](O)CNCc2cccc(OC)c2C)cc(N2CCCCS2(=O)=O)c1 | 520 nM |
| Cc1cc(-c2ccc3c(c2)CCN(CCC2CCC(NC(=O)/C=C/c4ccc(F)cc4)CC2)CC3)on1 (stereo unspecified) | 720 nM |
| COc1ccc(-c2cccc(NC(=O)c3ccc(C#N)cc3)c2)cc1CNC(C)C | 810 nM |
| O=S(=O)(NCCN1CCCC1)c1ccc(-c2cccc(CNCc3ccccc3)c2)s1 | 810 nM |
| Cc1cccc2[nH]c(-c3cccc(-c4cccc(NC(=O)Nc5ccc(Cl)c(Cl)c5)c4)c3)nc12 | 370 nM |
| CC(=O)c1cccc(Nc2nc3c(C#N)c(OCc4cc(Cl)cc(Cl)c4)ccc3[nH]2)c1 | 870 nM |
| Cc1nc(-c2cccc(C(F)(F)F)c2)n2nc(Nc3ccc(OCCN4CCCC4)cc3)ncc12 | 750 nM |
| C=CCOC(=O)N1CCC(CNCc2cccc(-c3cccc(-c4nc5ccccc5[nH]4)c3)c2)C1 (stereo unspecified) | 340 nM |
| CN1CCN(CCNc2c3ccccc3nc3c2ccc2ccccc23)CC1 | 610 nM |

| SMILES | IC50 |
| --- | --- |
| OC(CNc1ccnc(Nc2ccc(Cl)cc2)n1)c1ccccc1C(F)(F)F (stereo unspecified) | 790 nM |
| COc1ccc2nccc([C@@H](O)CN3CCC(NC(=O)Cn4nc(-c5ccc(C(F)(F)F)cc5)ccc4=O)CC3)c2c1 | 740 nM |
| Cc1c(Br)cc2[nH]c(-c3ccc(C(=O)NC4CCN(Cc5ccccc5)CC4)cc3)nc2c1C | 330 nM |
| CCN(CC)CCN(Cc1ccc(-c2ccc(C(F)(F)F)cc2)cc1)C(=O)Cn1c(CCc2cccc(F)c2F)nc(=O)c2cc(F)c(F)cc21 | 830 nM |
| Oc1ccc(CCNc2nc(NCc3ccccc3-c3cccc(Cl)c3)nc(N3CCNCC3)n2)cc1 | 1280 nM |
| COc1cc(-c2nc3c4ccccc4c4ccccc4c3[nH]2)cc(OC)c1OC | 850 nM |
| COc1cc2c(c(Cl)c1OC)CCN(Cc1ccccc1)CC2c1ccc(C(N)=O)cc1 (stereo unspecified) | 850 nM |
| Cc1cc(N(C)CCN(C)C)nc(Nc2ccc(Cl)cc2)n1 | 970 nM |
| Fc1ccc2nc(-c3cccc(-c4cccc(CN5CCN(c6cnccn6)CC5)c4)c3)[nH]c2c1 | 1060 nM |
| COC(=O)CCCCCOc1cc(Cc2cnc(N)nc2N)cc(OC)c1OC | 180 nM |
| Cc1ccccc1C1CCN(C2CCC(NC(=O)c3cc4cc(C(C)C)ccc4[nH]3)CC2)CC1 (stereo unspecified) | 690 nM |
| CC(C)NCc1cccc(-c2cccc(-c3nc4ccc(F)cc4[nH]3)c2)c1 | 280 nM |
| CCOC(=O)c1ccc(OCCOc2ccccc2)cc1 | 370 nM |
| COc1ccc2nccc(N3CCN(CCNCc4ccc5c(n4)NC(=O)CO5)CC3)c2c1 | 1160 nM |
| O=C1CCCN1CCCNCc1cccc(-c2ccc(-c3nc4ccccc4[nH]3)s2)c1 | 860 nM |
| c1ccc(-c2csc(Nc3nc4cc5c(cc4s3)OCO5)n2)nc1 | 580 nM |
| CCC(CN1C(=O)C(c2ccccc2)(c2ccccc2)N=C1N)c1ccccc1 (stereo unspecified) | 140 nM |
| COc1cc(NC(=O)c2cc3c(C)nn(-c4cccc(C(F)(F)F)c4)c3s2)cc(OC)c1OC | 800 nM |
| COc1cccc(OC2CCN(C(=O)c3ccc(-c4ccc(N5CCCC5=O)cc4C)cc3)CC2)c1 | 1010 nM |
| Cc1cc(N(C)C)nc(Nc2ccc(NC(=O)Nc3ccccc3)cc2)n1 | 130 nM |
| O=C(CCNc1ccnc(NCC2CCCCC2)n1)Nc1ccccc1 | 1100 nM |
| CCc1ccc(NC(=O)c2cccc(CN3CCCN(Cc4cccc(O)c4)CC3)c2)cc1 | 890 nM |
| CCc1cn(CC(=O)N(CCOc2ccc(-c3ccc(C(F)(F)F)cc3)cc2)CCN(CC)CC)c(SCc2ccc(F)cc2)nc1=O | 780 nM |
| COc1ccc(S(=O)(=O)NCCC2CCN(CCCCCNC(=O)C=Cc3ccc(Cl)c(Cl)c3)CC2)cc1 | 960 nM |
